Test results from patent US12458605B2, “Lipid nanoparticle” (National University Corporation Hokkaido University, priority 2020, dated 2025).

How the values were obtained:
[1] = system: liver; assay: In vivo Fluc activity of FlucmRNA-loaded LNP by in vivo imaging, liver; details: Balb/c mice, 6 hours; for Fluc activity in the liver, compared with CL15F6: 0.1 mg mRNA/kg, versus LNP comprising CL15F6 (Table 7); for Fluc Activity in liver: FlucmRNA-loaded LNP i.v. 0.1 mg mRNA/kg
Description: (§1) Then, each prepared FlucmRNA-loaded lipid nanoparticles were administered to Balb/c mice (Charles River Laboratories Japan, Inc., 7 weeks old, female) and in vivo gene expression activity was examined. Specifically, each FlucmRNA-loaded lipid nanoparticles were intravenously administered to Balb/c mice at 0.1 mg mRNA/kg, and Fluc activities in the liver and spleen at 6 hours later were measured. Fluc activity was measured by in vivo imaging system (Perkin Elmer, IVIS200) after administration of VivoGlo Luciferin, In Vivo Grade (Promega, P1041) dissolved with PBS to 15 mg/mL, via tail vein at a dose of 1.5 mg per mouse. The unit of Fluc activity is the emission intensity per unit area (Avg Radiance [p/s/cm2/sr]) at the maximum emission wavelength of about 560 nm. The results of measurement of the Fluc activity (Avg Radiance [p/s/cm2/sr]) in the liver and spleen of mice administered each FlucmRNA-loaded lipid nanoparticles are shown in Tables 5-7.

[2] = system: spleen; assay: In vivo Fluc activity of FlucmRNA-loaded LNP by in vivo imaging, spleen; details: Balb/c mice, 6 hours; for Fluc Activity in spleen: FlucmRNA-loaded LNP i.v. 0.1 mg mRNA/kg
Description: as §1

[3] = system: F7; assay: In vivo F7 knockdown, plasma F7 enzyme activity (BIOPHEN FVII), Balb/c mice; details: for knockdown activity, compared with MC3: F7siRNA-loaded LNP, versus LNP comprising MC3; for F7 enzyme activity (Ratio using MC3 as 1): relative plasma F7 activity of MC3 LNP as 1
Description: Then, each prepared F7siRNA-loaded lipid nanoparticles were administered to Balb/c mice (Charles River Laboratories Japan, Inc., 5 weeks old, female) and in vivo F7 knockdown activity was examined. Specifically, BALB/c mice were intravenously administered F7siRNA-loaded lipid nanoparticles comprising the lipids described in Table 9 at 0.025 mg siRNA/kg and F7siRNA-loaded lipid nanoparticles comprising the lipids described in Tables 10 and 11 at 0.025 mg siRNA/kg, and the plasma F7 enzyme activity at 24 hours later was measured using BIOPHEN FVII (Biophen, A221304). Relative plasma F7 enzyme activity (%) of mice administered each F7siRNA-loaded lipid nanoparticles was calculated using plasma F7 enzyme activity of untreated mice as 100%. Furthermore, the ratio was calculated using the relative plasma F7 enzyme activity (%) of mice administered MC3-comprising F7siRNA-loaded lipid nanoparticles as 1. The results of measurement of CL4F6 derivative nanoparticles are shown in Tables 9 and 10, and results of measurement of CL15F6 derivative nanoparticles in Table 11.

[4] = siRNA/mRNA encapsulation rate by Ribogreen reagent (section IV); format: physicochemical; details: for % siRNA encapsulation: F7siRNA-loaded LNP, 50:10:38.5:1.5, N/P ratio 6; for % mRNA encapsulation: FlucmRNA-loaded LNP, 50:10:38.5:1.5
Description: The encapsulation rates of siRNA and mRNA of lipid nanoparticles were measured with Ribogreen reagent. A solution diluted with TE buffer solution was arranged so that lipid nanoparticle concentration as nucleic acid concentration to be 8 μg/mL, as a solution for measuring nanoparticle surface nucleic acid concentration. In addition, a solution for measuring total nucleic acid concentration was arranged so that lipid nanoparticle concentration as nucleic acid concentration to be 1.2 μg/mL, which is 1% (w/w) concentration of X-triton100, by adding X-triton100. For 100 μL of each solution, 100 μL of Ribogreen (registered trademark) reagent (Quant-iT™ RiboGreen™ RNA Reagent, manufactured by Thermofisher Scientific) was mixed well in the wells of 96-well microplate (black, made of polystyrene, flat bottom, manufactured by Corning), and the fluorescence intensity at an excitation wavelength of 485 nm and a measurement wavelength of 528 nm was measured with a microplate reader. Nucleic acid concentration was calculated by calibration curve created by measuring the fluorescence intensity of nucleic acid solution containing 1% X-triton100 (nucleic acid concentration: 0-2.5 μg/mL) as same as aforementioned. Nucleic acid encapsulation rate of each lipid nanoparticle was calculated by the following formula: Encapsulation rate %=(nucleic acid concentration in solution for measuring total nucleic acid concentration (μg/mL)−nucleic acid concentration in solution for measuring nanoparticle surface nucleic acid concentration (μg/mL))/nucleic acid concentration in solution for measuring total nucleic acid concentration (μg/mL)×100. <Results>
The encapsulation rate of mRNA of lipid nanoparticles was measured using Ribogreen (manufactured by life technologies).

[5] = Storage stability of FlucmRNA-loaded LNP at −80, 5, 25 and 40° C.; format: physicochemical; details: for period for which quality remained good, −80° C.: maximum storage period 1 week; for period for which quality remained good, 5° C. / period for which quality remained good, 25° C. / period for which quality remained good, 40° C. (weeks): maximum storage period 5 weeks
Description: Lipid nanoparticles were allowed to stand at each temperature of −80° C., 5° C., 25° C., and 40° C., and after keeping for each period of time, average particle size, PDI, and nucleic acid encapsulation rate were measured. Lipid nanoparticles which satisfy following all three conditions were defined that the quality was remained well: the average particle size is maintained within +/−20 nm based on the date of LNP preparation; PDI remains high uniformity with a value of 0.2 or less; and the nucleic acid encapsulation rate is also maintained at 80% or more. As a result of measuring average particle size, PDI, and nucleic acid encapsulation rate after each FlucmRNA-loaded lipid nanoparticle was allowed to stand at −80° C., 5° C., 25° C., and 40° C. respectively and kept for each period of time, periods of time defined as the quality of the lipid nanoparticles was remained well are shown in Tables 13 and 14. The lipid nanoparticles which remain in good quality with standing at 5° C. for one week or more can be evaluated as having excellent stability.

[6] = Average particle size (ζ-Average) and PDI by dynamic light scattering (Zetasizer Nano ZSP); format: physicochemical
Description: The average particle size (ζ-Average) and PDI in PBS(−) of lipid nanoparticles were measured using “Zetasizer Nano ZSP”, an analyzer utilizing dynamic light scattering (manufactured by Malvern).
Measurement of average particle size and PDI of the lipid nanoparticles were carried out with the same method as the measurement of average particle size of mRNA-LNP.
The average particle size (ζ-Average) and PDI in PBS (−) of lipid nanoparticles were measured using “Zetasizer Nano ZSP”, an analyzer utilizing dynamic light scattering (manufactured by Malvern).

[7] = i.v. 0.025 mg siRNA/kg, plasma at 24 hours
[8] = F7siRNA-loaded LNP, 50:10:38.5:1.5, N/P ratio 6
[9] = FlucmRNA-loaded LNP, 50:10:38.5:1.5
[10] = FlucmRNA-loaded LNP, lipid:DSPC:cholesterol:DMG-PEG2K 50:10:38.5:1.5

| % siRNA encapsulation [4] [%] | % mRNA encapsulation [4] [%] | period for which quality remained good, −80° C. [5] [week] | period for which quality remained good, 5° C. [5] [weeks] | period for which quality remained good, 25° C. [5] [weeks] | period for which quality remained good, 40° C. (weeks) [5] [weeks] | PDI [6, 8] | ζ-Average (nm) [6, 8] [nm] | PDI [6, 9] | ζ-Average (nm) [6, 10] [nm] | Compound | Fluc activity in the liver, compared with CL15F6 [1] | Fluc Activity in liver [1] | Fluc Activity in spleen [2] | knockdown activity, compared with MC3 [3] | F7 enzyme activity (Ratio using MC3 as 1) [3, 7] | Fluc activity in the spleen, compared with CL4F6 ([2]; 0.1 mg mRNA/kg, versus LNP comprising CL4F6 (Tables 5 and 6)) | Fluc activity in the spleen, compared with CL15F6 ([2]; 0.1 mg mRNA/kg, versus LNP comprising CL15F6 (Table 7)) | F7 enzyme activity (%) ([3]; i.v. 0.025 mg siRNA/kg, plasma at 24 hours, untreated mice as 100%) |
| --- | --- | --- | --- | --- | --- | --- | --- | --- | --- | --- | --- | --- | --- | --- | --- | --- | --- | --- |
| 100.3 | 99.8 | 1 | 5 | 5 | 5 | 0.017 | 109.6 | 0.010 | 108.90 | CCCCCCCCCC(CCCCC)C(=O)OCCCCCCC(O)(CCCCCCOC(=O)C(CCCCC)CCCCCCCCC)CCCCOC(=O)C1CCN(C)CC1 (stereo not drawn) [CL15F 11-5] | higher Fluc activity | 9.38E+06 Avg Radiance [p/s/cm2/sr] | 5.01E+06 Avg Radiance [p/s/cm2/sr] | higher knockdown activity | 0.78 | – | – | – |
| 100.3 | 99.5 | 1 | 5 | 5 | 5 | 0.023 | 103.1 | 0.010 | 107.60 | CCCCCCCC(CCCCCCC)C(=O)OCCCCCCC(O)(CCCCCCOC(=O)C(CCCCCCC)CCCCCCC)CCCCOC(=O)C1CCN(C)CC1 [CL15F 9-7] | higher Fluc activity | 6.76E+06 Avg Radiance [p/s/cm2/sr] | 4.23E+06 Avg Radiance [p/s/cm2/sr] | higher knockdown activity | 0.60 | – | – | – |

More lines, now with the values behind:

| Compound | % siRNA encapsulation [4] [%] | % mRNA encapsulation [4] [%] | period for which quality remained good, −80° C. [5] [week] | period for which quality remained good, 5° C. [5] [weeks] | period for which quality remained good, 25° C. [5] [weeks] | period for which quality remained good, 40° C. (weeks) [5] [weeks] | PDI [6, 8] | ζ-Average (nm) [6, 8] [nm] | PDI [6, 9] | ζ-Average (nm) [6, 10] [nm] | Fluc activity in the liver, compared with CL15F6 [1] | Fluc Activity in liver [1] | Fluc Activity in spleen [2] | knockdown activity, compared with MC3 [3] | F7 enzyme activity (Ratio using MC3 as 1) [3, 7] | Fluc activity in the spleen, compared with CL4F6 ([2]; 0.1 mg mRNA/kg, versus LNP comprising CL4F6 (Tables 5 and 6)) | Fluc activity in the spleen, compared with CL15F6 ([2]; 0.1 mg mRNA/kg, versus LNP comprising CL15F6 (Table 7)) | F7 enzyme activity (%) ([3]; i.v. 0.025 mg siRNA/kg, plasma at 24 hours, untreated mice as 100%) |
| --- | --- | --- | --- | --- | --- | --- | --- | --- | --- | --- | --- | --- | --- | --- | --- | --- | --- | --- |
| CCCCCCC(CCCCC)C(=O)OCCCCCCC(O)(CCCCCCOC(=O)C(CCCCC)CCCCCC)CCCCN(CCC)CCC (stereo not drawn) [CL4F 8-5] | 99.7 | 99.1 | 1 | 5 | 5 | 5 | 0.034 | 103.40 | 0.043 | 94.65 | – | 4.80E+07 Avg Radiance [p/s/cm2/sr] | 1.45E+07 Avg Radiance [p/s/cm2/sr] | higher knockdown activity | 0.38 | higher Fluc activity | – | – |
| CCCCCCCC(CCCCC)C(=O)OCCCCCCC(O)(CCCCCCOC(=O)C(CCCCC)CCCCCCC)CCCCOC(=O)C1CCN(C)CC1 (stereo not drawn) [CL15F 9-5] | 100.1 | 99.1 | 1 | 5 | 5 | 5 | 0.035 | 129.5 | 0.037 | 135.00 | – | 1.86E+06 Avg Radiance [p/s/cm2/sr] | 5.77E+06 Avg Radiance [p/s/cm2/sr] | – | 1.11 | – | higher Fluc activity | – |
| CCCCCCCCCCC(CCCCCCCCCC)C(=O)OCCCCCCC(O)(CCCCCCOC(=O)C(CCCCCCCCCC)CCCCCCCCCC)CCCCN(CCC)CCC [CL4F 12-10] | 99.2 | 99.6 | 1 | 5 | 5 | 5 | 0.015 | 85.62 | 0.019 | 75.85 | – | 3.09E+07 Avg Radiance [p/s/cm2/sr] | 2.77E+05 Avg Radiance [p/s/cm2/sr] | – | – | – | – | 80.6 |
